Experimental data reported in US11186576B2, “Pyrazolo[1,5-A][1,3,5]triazine and pyrazolo[1,5-A]pyrimidine derivatives as CDK inhibitors” (Aurigene Discovery Technologies Limited, priority 2015, dated 2021).

Biological target: CDK7/CycH/MNAT1 (Homo sapiens (Human), UniProt P50613)
Assay: Biochemical assay for CDK7 (TR-FRET kinase assay)
Details: 60 min pre-incubation, 1 mM ATP; for inhibition at 10 µM: 10 μM compound, read-out: % inhibition @ 10 μM; for IC50: read-out: IC50
Procedure: The ability of compounds to inhibit CDK7 kinase activity was tested in a TR-FRET assay using 5 nM of CDK7/CycH/MNAT1 obtained from Invitrogen, USA. Test compounds were pre-incubated with the kinase at room temperature for 60 min. After incubation, substrate mix [100 nM Ultra-light MBP (Perkin Elmer, USA) and 1 mM ATP (Sigma)] was added. The above reaction was stopped by the addition of 40 mM EDTA after 60 minutes of kinase reaction. 1 nM Eu-labelled antiphospho-MBP antibody [Perkin Elmer, USA] was added, mixed well and the fluorescence emission at 615 nm and 665 nm [excitation at 340 nm] was measured. The final DMSO concentration in the assay was 1%. For IC50 determination, appropriate concentrations were made by ⅓^rd serial dilutions of 10 mM DMSO stock solution of test compound. All the fluorescence measurements were made in a Victor 3 Multilabel Counter [Perkin Elmer, USA]. The IC50 was determined by fitting the dose response data to sigmoidal curve fitting equation using GraphPad Prism software V5. To identify compounds that inhibit CDK7 irreversibly, time depended inhibition studies were carried by pre-incubating compound with the enzyme at three time points (20, 60 and 180 min) and carrying out assay as described above.

CDK7/CycH/MNAT1, sequence (P50613 whole entry): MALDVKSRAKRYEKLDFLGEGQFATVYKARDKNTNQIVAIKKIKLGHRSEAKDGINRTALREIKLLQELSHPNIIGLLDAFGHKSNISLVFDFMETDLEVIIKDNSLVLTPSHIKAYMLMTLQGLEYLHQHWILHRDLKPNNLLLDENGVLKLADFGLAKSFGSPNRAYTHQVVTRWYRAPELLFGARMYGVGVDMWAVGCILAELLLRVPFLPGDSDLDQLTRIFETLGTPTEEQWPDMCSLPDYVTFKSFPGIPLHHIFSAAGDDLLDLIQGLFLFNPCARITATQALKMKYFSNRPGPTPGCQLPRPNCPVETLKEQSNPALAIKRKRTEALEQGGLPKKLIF
CDK7/CycH/MNAT1, sequence (P51946 whole entry partner): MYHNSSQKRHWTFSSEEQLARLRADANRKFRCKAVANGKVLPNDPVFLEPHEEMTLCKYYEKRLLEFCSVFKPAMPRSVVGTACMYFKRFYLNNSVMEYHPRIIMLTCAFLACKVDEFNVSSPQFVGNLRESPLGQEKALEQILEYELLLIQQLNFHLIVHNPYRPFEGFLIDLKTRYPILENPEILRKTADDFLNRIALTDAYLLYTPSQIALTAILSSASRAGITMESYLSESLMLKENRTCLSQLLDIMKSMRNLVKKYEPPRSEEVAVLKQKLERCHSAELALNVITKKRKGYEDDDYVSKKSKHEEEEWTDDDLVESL
CDK7/CycH/MNAT1, sequence (P51948 whole entry partner): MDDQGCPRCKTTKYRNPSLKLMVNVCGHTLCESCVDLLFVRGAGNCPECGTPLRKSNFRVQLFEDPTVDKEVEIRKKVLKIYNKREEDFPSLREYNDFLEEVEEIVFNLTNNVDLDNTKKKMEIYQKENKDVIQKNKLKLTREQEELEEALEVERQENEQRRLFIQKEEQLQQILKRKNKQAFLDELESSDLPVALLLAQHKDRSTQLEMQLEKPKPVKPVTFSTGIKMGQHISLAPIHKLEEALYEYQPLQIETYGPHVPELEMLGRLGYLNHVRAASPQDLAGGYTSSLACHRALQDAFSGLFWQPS

inhibition at 10 µM [%]	IC50 [µM]	SMILES
91	0.3 to 1	C=CC(=O)N1CCCCC1C(=O)Nc1cc(F)cc(CNc2nc(NC3CCOCC3)nc3c(C(C)C)cnn23)c1 (stereo not shown) [Compound 36, 1-acryloyl-N-(3-fluoro-5-(((8-isopropyl-2-((tetrahydro-2H-pyran-4-yl)amino)pyrazolo[1,5-a][1,3,5]triazin-4-yl)amino)methyl)phenyl)piperidine-2-carboxamide]
91	< 0.3	C=CC(=O)N1CCCCC1C(=O)Nc1ccc(F)c(CNc2nc(NC3CCOCC3)nc3c(C(C)C)cnn23)c1 (stereo not shown) [Compound 37, 1-acryloyl-N-(4-fluoro-3-(((8-isopropyl-2-((tetrahydro-2H-pyran-4-yl)amino)pyrazolo[1,5-a][1,3,5]triazin-4-yl)amino)methyl)phenyl)piperidine-2-carboxamide]
76	> 1	C=CC(=O)N[C@H]1CC[C@@H](C(=O)Nc2ccc(F)c(CNc3nc(NC4CCOCC4)nc4c(C(C)C)cnn34)c2)CC1 [Compound 39, (1,4-cis)-4-acrylamido-N-(4-fluoro-3-(((8-isopropyl-2-((tetrahydro-2H-pyran-4-yl)amino)pyrazolo[1,5-a][1,3,5]triazin-4-yl)amino)methyl)phenyl)cyclohexane-1-carboxamide]
99	< 0.3	C=CC(=O)N1CCOCC1C(=O)Nc1cncc(CNc2nc(NC3CCOCC3)nc3c(C(C)C)cnn23)c1 (stereo not shown) [Compound 40, 4-acryloyl-N-(5-(((8-isopropyl-2-((tetrahydro-2H-pyran-4-yl)amino)pyrazolo[1,5-a][1,3,5]triazin-4-yl)amino)methyl)pyridin-3-yl)morpholine-3-carboxamide]
	< 0.3	C=CC(=O)Nc1cc(C(=O)Nc2cccc(CNc3nc(NC4CCOCC4)nc4c(C(C)C)cnn34)c2)ccc1C [Compound 40A, 3-acrylamido-N-(3-(((8-isopropyl-2-((tetrahydro-2H-pyran-4-yl)amino)pyrazolo[1,5-a][1,3,5]triazin-4-yl)amino)methyl)phenyl)-4-methylbenzamide]
	< 0.3	C=CC(=O)Nc1ccc(C)c(C(=O)Nc2cccc(CNc3nc(NC4CCOCC4)nc4c(C(C)C)cnn34)c2)c1 [Compound 40B, 5-acrylamido-N-(3-(((8-isopropyl-2-((tetrahydro-2H-pyran-4-yl)amino)pyrazolo[1,5-a][1,3,5]triazin-4-yl)amino)methyl)phenyl)-2-methylbenzamide]
	< 0.3	C=CC(=O)N1C(C)CCCC1C(=O)Nc1cccc(CNc2nc(NC3CCOCC3)nc3c(C(C)C)cnn23)c1 (stereo not shown) [Compound 40C, 1-acryloyl-N-(3-(((8-isopropyl-2-((tetrahydro-2H-pyran-4-yl)amino)pyrazolo[1,5-a][1,3,5]triazin-4-yl)amino)methyl)phenyl)-6-methylpiperidine-2-carboxamide]
	0.3 to 1	C=CC(=O)N1CCCCC1C(=O)Nc1cccc(CNc2nc(N[C@H]3CCCOC3)nc3c(C(C)C)cnn23)c1 (stereo partly drawn) [Compound 40D, 1-acryloyl-N-(3-(((8-isopropyl-2-(((S)-tetrahydro-2H-pyran-3-yl)amino)pyrazolo[1,5-a][1,3,5]triazin-4-yl)amino)methyl)phenyl)piperidine-2-carboxamide]
92	0.3 to 1	C=CC(=O)N1CCC[C@H](NC(=O)c2cccc(CNc3nc(NC4CCOCC4)nc4c(C(C)C)cnn34)c2)C1 [Compound 41, (S)—N-(1-acryloylpiperidin-3-yl)-3-(((8-isopropyl-2-((tetrahydro-2H-pyran-4-yl)amino)pyrazolo[1,5-a][1,3,5]triazin-4-yl)amino)methyl)benzamide]
79	0.3 to 1	C=CC(=O)N1CCC(C(=O)Nc2cc(CNc3nc(NC4CCOCC4)nc4c(C(C)C)cnn34)ccc2F)C1 (stereo not shown) [Compound 43, 1-acryloyl-N-(2-fluoro-5-(((8-isopropyl-2-((tetrahydro-2H-pyran-4-yl)amino)pyrazolo[1,5-a][1,3,5]triazin-4-yl)amino)methyl)phenyl)pyrrolidine-3-carboxamide]
94	< 0.3	C=CC(=O)N1CCCCC1C(=O)Nc1cc(CNc2nc(NC3CCOCC3)nc3c(C(C)C)cnn23)ccc1F (stereo not shown) [Compound 44, 1-acryloyl-N-(2-fluoro-5-(((8-isopropyl-2-((tetrahydro-2H-pyran-4-yl)amino)pyrazolo[1,5-a][1,3,5]triazin-4-yl)amino)methyl)phenyl)piperidine-2-carboxamide]
73	> 1	C=CC(=O)N1CCCC(C(=O)Nc2cccc(C(C)Nc3nc(NC4CCOCC4)nc4c(C(C)C)cnn34)c2)C1 (stereo not shown) [Compound 45, 1-acryloyl-N-(3-(1-((8-isopropyl-2-((tetrahydro-2H-pyran-4-yl)amino)pyrazolo[1,5-a][1,3,5]triazin-4-yl)amino)ethyl)phenyl)piperidine-3-carboxamide]
100	< 0.3	C=CC(=O)Nc1cccc(C(=O)Nc2cccc(CNc3nc(NC4CCOCC4)nc4c(C(C)C)cnn34)c2)c1 [Compound 47, 3-acrylamido-N-(3-(((8-isopropyl-2-((tetrahydro-2H-pyran-4-yl)amino)pyrazolo[1,5-a][1,3,5]triazin-4-yl)amino)methyl)phenyl)benzamide]
98	< 0.3	C=CC(=O)Nc1ccccc1C(=O)Nc1cccc(CNc2nc(NC3CCOCC3)nc3c(C(C)C)cnn23)c1 [Compound 48, 2-acrylamido-N-(3-(((8-isopropyl-2-((tetrahydro-2H-pyran-4-yl)amino)pyrazolo[1,5-a][1,3,5]triazin-4-yl)amino)methyl)phenyl)benzamide]
	< 0.3	C=CC(=O)Nc1cccc(C(=O)Nc2cccc(CNc3nc(NC4CCOCC4)nc4c(C(C)C)cnn34)c2)c1C [Compound 48A, 3-acrylamido-N-(3-(((8-isopropyl-2-((tetrahydro-2H-pyran-4-yl)amino)pyrazolo[1,5-a][1,3,5]triazin-4-yl)amino)methyl)phenyl)-2-methylbenzamide]
84	> 1	CC(C)c1cnn2c(NCc3cccc(NC/C=C/C(=O)N(C)C)c3)nc(NC3CCOCC3)nc12 [Compound 49, (E)-4-((3-(((8-isopropyl-2-((tetrahydro-2H-pyran-4-yl)amino)pyrazolo[1,5-a][1,3,5]triazin-4-yl)amino)methyl)phenyl)amino)-N,N-dimethylbut-2-enamide]
97	< 0.3	CCN(CC)C/C=C/C(=O)Nc1cccc(CNc2nc(NC3CCOCC3)nc3c(C(C)C)cnn23)c1 [Compound 50, (E)-4-(diethylamino)-N-(3-(((8-isopropyl-2-((tetrahydro-2H-pyran-4-yl)amino)pyrazolo[1,5-a][1,3,5]triazin-4-yl)amino)methyl)phenyl)but-2-enamide]
91	0.3 to 1	CC(C)c1cnn2c(NCc3cccc(NC(=O)/C=C/CN4CCOCC4)c3)nc(NC3CCOCC3)nc12 [Compound 51, (E)-N-(3-(((8-isopropyl-2-((tetrahydro-2H-pyran-4-yl)amino)pyrazolo[1,5-a][1,3,5]triazin-4-yl)amino)methyl)phenyl)-4-morpholinobut-2-enamide]
96		CCN1CCN(C/C=C/C(=O)Nc2cccc(CNc3nc(NC4CCOCC4)nc4c(C(C)C)cnn34)c2)CC1 [Compound 52, (E)-4-(4-ethylpiperazin-1-yl)-N-(3-(((8-isopropyl-2-((tetrahydro-2H-pyran-4-yl)amino)pyrazolo[1,5-a][1,3,5]triazin-4-yl)amino)methyl)phenyl)but-2-enamide]
99	< 0.3	CC(C)c1cnn2c(NCc3cccc(NC(=O)/C=C/CN(C)C)c3)nc(NC3CCOCC3)nc12 [Compound 53, (E)-4-(dimethylamino)-N-(3-(((8-isopropyl-2-((tetrahydro-2H-pyran-4-yl)amino)pyrazolo[1,5-a][1,3,5]triazin-4-yl)amino)methyl)phenyl)but-2-enamide]
98	< 0.3	CC(C)c1cnn2c(NCc3cccc(NC(=O)/C=C/CN4CCCC4)c3)nc(NC3CCOCC3)nc12 [Compound 54, (E)-N-(3-(((8-isopropyl-2-((tetrahydro-2H-pyran-4-yl)amino)pyrazolo[1,5-a][1,3,5]triazin-4-yl)amino)methyl)phenyl)-4-(pyrrolidin-1-yl)but-2-enamide]
99	< 0.3	CC(C)c1cnn2c(NCc3cccc(NC(=O)/C=C/CN4CCCCC4)c3)nc(NC3CCOCC3)nc12 [Compound 55, (E)-N-(3-(((8-isopropyl-2-((tetrahydro-2H-pyran-4-yl)amino)pyrazolo[1,5-a][1,3,5]triazin-4-yl)amino)methyl)phenyl)-4-(piperidin-1-yl)but-2-enamide]

SMILES	inhibition at 10 µM [%]	IC50 [µM]
C=CC(=O)N1CCN(C(=O)Oc2cccc(CNc3nc(NC4CCOCC4)nc4c(C(C)C)cnn34)c2)CC1 [Compound 46, 3-(((8-isopropyl-2-((tetrahydro-2H-pyran-4-yl)amino)pyrazolo[1,5-a][1,3,5]triazin-4-yl)amino)methyl)phenyl 4-acryloylpiperazine-1-carboxylate]	98	< 0.3
